From PubChem BioAssay AID1963986 (Molecular Pharmacology Branch, DTP, NCI, 2024)

System: 171881-019-R-J1-PDC tumor spheroid viability
Experiment: Anticancer human tumor 171881-019-R-J1-PDC patient-derived invasive breast carcinoma cell line growth inhibition [PI3K]
Conditions: spheroids with HUVEC and MSC; for IC50: curve of first compound; for viability, T/C: stronger effect = lower value
Description: Combinatorial screen of targeted agents with the PI3K inhibitors inavolisib, alpelisib, duvelisib, and copanlisib in multi-cell type tumor spheroids
A high-throughput screen of multi-cell type tumor spheroids was designed to identify active combinations of targeted small molecules and PI3K pathway inhibitors. Complex spheroids include a stromal component modeled by human endothelial cells (HUVEC) and fibroblasts modeled by human mesenchymal stem cells (MSCs). The concentration ranges selected for each drug and investigational agent were based upon clinically achievable concentrations if the clinical Cmax of the agent was known.
Compounds. The drugs and investigational agents: inavolisib (NSC800729), alpelisib (NSC765974), duvelisib (NSC772469), copanlisib (NSC816437), ipatasertib (NSC767898), afuresertib (NSC778305), talazoparib (NSC767125), sapanisertib (NSC764658), selumetinib (NSC741078), tovorafenib (DAY101, NSC766906), vemurafenib (NSC761431), ravoxertinib (NSC781343), sotorasib (NSC818433), MRTX1133 (NSC 836407), abemaciclib (NSC 768073), palbociclib (NSC758247), venetoclax (NSC 766270), SY5609 (NSC837396), enzalutamide (NSC755605), and darolutamide (NSC825331), were obtained from the National Cancer Institute (NCI) Developmental Therapeutics Program Chemical Repository. The FDA-approved anticancer drug set is available from the NCI Developmental Therapeutics Program. […] The stock solutions were prepared in dimethyl sulfoxide (DMSO, Sigma-Aldrich, St. Louis, MO, cat. D2650) at 800-fold the tested concentration and stored at -70 degrees C prior to their use. All drugs and investigational agents were tested over a range starting from a high concentration at or near the clinical Cmax and decreasing in half-log increments. If the clinical Cmax for an agent had not been determined, the highest concentration tested was 10 microM.
Cell Culture. All cells were maintained in an incubator at 37 degrees C and 5% CO2 with 95% humidity. The PDC lines were cultured according to standard operating procedures established by the NCI PDMR (https://pdmr.cancer.gov/sops/default.htm). All PDCs were thawed and cultured in Matrigel-coated flasks prepared with a working solution of 1X Ham's F-12 nutrient mix, without supplementation (Invitrogen, Waltham, MA, cat. 11765054), 100 U/mL penicillin-streptomycin (Invitrogen, cat. 15140122), and 2.5% Matrigel (Corning Inc., Corning, NY, cat. 354248) for the first three passages. The 354836-022-R-J1-PDC, 475296-252-R-J1-PDC, and 997726-040-R-J2-PDC lines were cultured in 6A media, which includes advanced DMEM/F-12 (Thermo Fisher Scientific, cat. 12634028), 10 mM HEPES (Thermo Fisher Scientific, cat. 15630080), 1X GlutaMAX supplement (Thermo Fisher Scientific, cat. 35050061), 0.1 mg/mL primocin (InvivoGen, San Diego, CA, cat. ant-pm-2), 10% defined fetal bovine serum, heat inactivated (HyClone Laboratories Inc., Logan, UT, cat. SH30070.03HI), 50% L-WRN conditioned media (ATCC, cat. CRL-3276), 1.25 mM N-Acetyl-L-cysteine (Sigma-Aldrich, cat. A9165), 10 mM nicotinamide (Sigma-Aldrich, cat. N0636), 1X B-27 supplement (Thermo Fisher Scientific, cat. 17504044), 1X N-2 supplement (Thermo Fisher Scientific, cat. 17502048), and 10 microM Y-27632 dihydrochloride (Tocris Bioscience, Bristol, United Kingdom, cat. 1254). The 624824-186-R-J2-PDC line was cultured in 6C/Colon 1B media, which includes all 6A media components plus 50 ng/mL human EGF recombinant protein (Thermo Fisher Scientific, cat. PHG0311). […]
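Note: spheroids exposed to compound for 7 days before viability read.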
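Throughout, for viability, T/C: 100% = DMSO vehicle-treated spheroids.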

Work on `CCCS(=O)(=O)Nc1ccc(F)c(C(=O)c2c[nH]c3ncc(-c4ccc(Cl)cc4)cc23)c1F` + Cc1nc(NC(=O)N2CCCC2C(N)=O)sc1-c1ccnc(C(C)(C)C(F)(F)F)c1 yielded an IC50 (second compound 0.0316 µM) of 5.56 µM, an IC50 (second compound 0.1 µM) of 5.71 µM and an IC50 (second compound 0.316 µM) of 4.72 µM. For the same compound, the IC50 (second compound 1 µM) was < 0.0316 µM, the IC50 (second compound 3.16 µM) was < 0.0316 µM and the IC50 (second compound 10 µM) was < 0.0316 µM. The viability, T/C (second compound 0.0316 µM, first compound 0.0316 µM) was 97.5%, the viability, T/C (second compound 0.0316 µM, first compound 0.1 µM) was 91% and the viability, T/C (second compound 0.0316 µM, first compound 0.316 µM) was 97.2%. For the same compound, the viability, T/C (second compound 0.0316 µM, first compound 1 µM) was 92.2%, the viability, T/C (second compound 0.0316 µM, first compound 3.16 µM) was 86.9% and the viability, T/C (second compound 0.0316 µM, first compound 10 µM) was 11.7%. For the same compound, the viability, T/C (second compound 0.1 µM, first compound 0.0316 µM) was 92.4%, the viability, T/C (second compound 0.1 µM, first compound 0.1 µM) was 99.3% and the viability, T/C (second compound 0.1 µM, first compound 0.316 µM) was 99.3%. It also gave a viability, T/C (second compound 0.1 µM, first compound 1 µM) of 97.5%, a viability, T/C (second compound 0.1 µM, first compound 3.16 µM) of 91.8% and a viability, T/C (second compound 0.1 µM, first compound 10 µM) of 10.3%. The viability, T/C (second compound 0.316 µM, first compound 0.0316 µM) was 57.6%, the viability, T/C (second compound 0.316 µM, first compound 0.1 µM) was 60.3% and the viability, T/C (second compound 0.316 µM, first compound 0.316 µM) was 73.7%. The viability, T/C (second compound 0.316 µM, first compound 1 µM) was 87.1%, the viability, T/C (second compound 0.316 µM, first compound 3.16 µM) was 82.2% and the viability, T/C (second compound 0.316 µM, first compound 10 µM) was 8.31%. It also gave a viability, T/C (second compound 1 µM, first compound 0.0316 µM) of 32.2%, a viability, T/C (second compound 1 µM, first compound 0.1 µM) of 36.7% and a viability, T/C (second compound 1 µM, first compound 0.316 µM) of 40.8%. It also gave a viability, T/C (second compound 1 µM, first compound 1 µM) of 49%, a viability, T/C (second compound 1 µM, first compound 3.16 µM) of 50.2% and a viability, T/C (second compound 1 µM, first compound 10 µM) of 5.09%. It also gave a viability, T/C (second compound 3.16 µM, first compound 0.0316 µM) of 15.2%, a viability, T/C (second compound 3.16 µM, first compound 0.1 µM) of 16.1% and a viability, T/C (second compound 3.16 µM, first compound 0.316 µM) of 18.9%. The viability, T/C (second compound 3.16 µM, first compound 1 µM) was 21.9%, the viability, T/C (second compound 3.16 µM, first compound 3.16 µM) was 23.4% and the viability, T/C (second compound 3.16 µM, first compound 10 µM) was 2.52%. The viability, T/C (second compound 10 µM, first compound 0.0316 µM) was 3.53%, the viability, T/C (second compound 10 µM, first compound 0.1 µM) was 3.46% and the viability, T/C (second compound 10 µM, first compound 0.316 µM) was 3.9%. The viability, T/C (second compound 10 µM, first compound 1 µM) was 5.16%, the viability, T/C (second compound 10 µM, first compound 3.16 µM) was 5.53% and the viability, T/C (second compound 10 µM, first compound 10 µM) was 2.11%.
